Active and inactive are the calls of the source. The rule behind the calls is not given here.
How the values were obtained:
CDK9/cyclin T1 = CDK9/cyclin T1 (Homo sapiens, UniProt P50750); assay: Inhibition of CDK9/Cyclin-T1 (unknown origin) preincubated for 10 mins followed by substrate addition and measured after 60 mins in presence of ATP by ADP-Glo reagent based assay; type: protein-complex assay
HCC827 = assay: Antiproliferative activity against human HCC827 cells incubated for 72 hrs by MTT assay; type: functional, cell-based; conditions: HCC827, 72 h
[1] = target: Cyclin-dependent kinase 2/cyclin E1 (Homo sapiens) (UniProt P24864+P24941); assay: Inhibition of CDK2/Cyclin E1 (unknown origin) at 200 nM preincubated for 10 mins followed by substrate addition and measured after 60 mins in presence of ATP by ADP-Glo reagent based assay relative to control; type: protein-complex assay; conditions: time 70.0 min
[2] = target: CDK7/Cyclin H/MNAT1 (Homo sapiens) (UniProt P51946+P50613+P51948); assay: Inhibition of CDK7/Cyclin H/MAT1 (unknown origin) at 200 nM preincubated for 10 mins followed by substrate addition and measured after 60 mins in presence of ATP by ADP-Glo reagent based assay relative to control; type: protein-complex assay; conditions: time 70.0 min
[3] = target: CDK6/cyclin D3 (Homo sapiens) (UniProt P30281+Q00534); assay: Inhibition of CDK6/cyclin D3 (unknown origin) at 200 nM preincubated for 10 mins followed by substrate addition and measured after 60 mins in presence of ATP by ADP-Glo reagent based assay relative to control; type: protein-complex assay; conditions: time 70.0 min
[4] = target: CDK12/Cyclin K (Homo sapiens) (UniProt O75909+Q9NYV4); assay: Inhibition of CDK12/cyclin K (unknown origin) at 200 nM preincubated for 10 mins followed by substrate addition and measured after 60 mins in presence of ATP by ADP-Glo reagent based assay relative to control; type: protein-complex assay; conditions: time 70.0 min
[5] = tested on: Epidermal growth factor receptor (Homo sapiens), P00533 [L858R,T790M,C797S]; assay: Inhibition of EGFR T790M/C797S/L858R triple mutant (unknown origin) at 2500 nM preincubated for 10 mins followed by substrate addition and measured after 60 mins in presence of ATP by ADP-Glo reagent based assay relative to control; conditions: time 70.0 min
[6] = target: Cyclin-dependent kinase 13/Cyclin-K (Homo sapiens) (UniProt Q14004+O75909); assay: Inhibition of CDK13/cyclin K (unknown origin) at 200 nM preincubated for 10 mins followed by substrate addition and measured after 60 mins in presence of ATP by ADP-Glo reagent based assay relative to control; type: protein-complex assay; conditions: time 70.0 min
[7] = target: Dual specificity protein kinase CLK1 (Homo sapiens) (UniProt P49759); assay: Inhibition of CLK1 (unknown origin) at 500 nM preincubated for 10 mins followed by substrate addition and measured after 60 mins in presence of ATP by ADP-Glo reagent based assay relative to control; conditions: time 70.0 min
Sequence of Dual specificity protein kinase CLK1 (Homo sapiens) (P49759 whole entry, looked up): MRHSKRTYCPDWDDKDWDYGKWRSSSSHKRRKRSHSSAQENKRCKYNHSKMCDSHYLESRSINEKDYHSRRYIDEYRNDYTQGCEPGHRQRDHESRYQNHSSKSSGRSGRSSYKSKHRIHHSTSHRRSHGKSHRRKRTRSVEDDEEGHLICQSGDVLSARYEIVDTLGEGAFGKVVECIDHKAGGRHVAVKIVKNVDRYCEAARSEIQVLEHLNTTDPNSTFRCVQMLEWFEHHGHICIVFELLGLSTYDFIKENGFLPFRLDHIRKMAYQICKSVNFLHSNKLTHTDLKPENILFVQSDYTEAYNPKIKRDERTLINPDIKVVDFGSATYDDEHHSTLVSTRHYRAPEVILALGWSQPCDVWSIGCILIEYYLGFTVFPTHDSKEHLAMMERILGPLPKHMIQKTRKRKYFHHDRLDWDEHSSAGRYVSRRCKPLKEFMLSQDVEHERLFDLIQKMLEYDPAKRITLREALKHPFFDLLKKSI

[8] = target: Homeodomain-interacting protein kinase 1 (Homo sapiens) (UniProt Q86Z02); assay: Inhibition of HIPK1 (unknown origin) at 500 nM preincubated for 10 mins followed by substrate addition and measured after 60 mins in presence of ATP by ADP-Glo reagent based assay relative to control; conditions: time 70.0 min
Sequence of Homeodomain-interacting protein kinase 1 (Homo sapiens) (Q86Z02 whole entry, looked up): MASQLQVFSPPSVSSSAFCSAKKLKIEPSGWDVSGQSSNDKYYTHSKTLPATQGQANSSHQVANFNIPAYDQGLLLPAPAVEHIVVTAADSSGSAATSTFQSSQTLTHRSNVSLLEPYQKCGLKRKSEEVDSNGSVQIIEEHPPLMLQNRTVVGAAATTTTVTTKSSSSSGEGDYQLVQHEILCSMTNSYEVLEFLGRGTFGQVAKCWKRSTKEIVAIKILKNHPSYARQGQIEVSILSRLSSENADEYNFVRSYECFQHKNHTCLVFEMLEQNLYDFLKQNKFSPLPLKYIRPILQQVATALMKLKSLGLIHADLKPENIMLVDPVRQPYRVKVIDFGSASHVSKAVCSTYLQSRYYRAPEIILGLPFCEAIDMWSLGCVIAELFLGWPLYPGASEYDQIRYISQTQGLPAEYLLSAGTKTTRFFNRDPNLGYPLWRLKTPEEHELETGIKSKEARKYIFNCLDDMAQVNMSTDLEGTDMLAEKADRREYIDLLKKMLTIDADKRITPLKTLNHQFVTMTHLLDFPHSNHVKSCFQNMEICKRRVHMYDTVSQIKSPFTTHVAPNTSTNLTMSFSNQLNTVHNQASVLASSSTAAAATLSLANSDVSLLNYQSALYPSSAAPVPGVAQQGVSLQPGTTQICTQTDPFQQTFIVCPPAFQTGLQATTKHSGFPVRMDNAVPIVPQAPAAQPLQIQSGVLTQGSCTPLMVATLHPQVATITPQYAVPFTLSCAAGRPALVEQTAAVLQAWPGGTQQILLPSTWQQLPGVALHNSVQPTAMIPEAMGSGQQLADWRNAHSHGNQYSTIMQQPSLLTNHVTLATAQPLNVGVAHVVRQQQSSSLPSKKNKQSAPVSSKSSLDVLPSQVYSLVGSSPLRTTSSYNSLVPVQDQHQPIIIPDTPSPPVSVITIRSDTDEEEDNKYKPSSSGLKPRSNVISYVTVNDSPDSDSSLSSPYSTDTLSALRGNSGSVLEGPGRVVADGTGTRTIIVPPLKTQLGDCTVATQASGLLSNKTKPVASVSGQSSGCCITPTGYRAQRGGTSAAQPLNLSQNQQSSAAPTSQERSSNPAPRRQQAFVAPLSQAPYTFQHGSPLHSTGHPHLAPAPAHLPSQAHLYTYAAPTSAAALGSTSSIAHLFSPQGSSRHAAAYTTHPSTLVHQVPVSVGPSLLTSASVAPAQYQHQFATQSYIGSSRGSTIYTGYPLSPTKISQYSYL

[9] = target: Mitogen-activated protein kinase 15 (Homo sapiens) (UniProt Q8TD08); assay: Inhibition of ERK7 (unknown origin) at 500 nM preincubated for 10 mins followed by substrate addition and measured after 60 mins in presence of ATP by ADP-Glo reagent based assay relative to control; conditions: time 70.0 min
Sequence of Mitogen-activated protein kinase 15 (Homo sapiens) (Q8TD08 whole entry): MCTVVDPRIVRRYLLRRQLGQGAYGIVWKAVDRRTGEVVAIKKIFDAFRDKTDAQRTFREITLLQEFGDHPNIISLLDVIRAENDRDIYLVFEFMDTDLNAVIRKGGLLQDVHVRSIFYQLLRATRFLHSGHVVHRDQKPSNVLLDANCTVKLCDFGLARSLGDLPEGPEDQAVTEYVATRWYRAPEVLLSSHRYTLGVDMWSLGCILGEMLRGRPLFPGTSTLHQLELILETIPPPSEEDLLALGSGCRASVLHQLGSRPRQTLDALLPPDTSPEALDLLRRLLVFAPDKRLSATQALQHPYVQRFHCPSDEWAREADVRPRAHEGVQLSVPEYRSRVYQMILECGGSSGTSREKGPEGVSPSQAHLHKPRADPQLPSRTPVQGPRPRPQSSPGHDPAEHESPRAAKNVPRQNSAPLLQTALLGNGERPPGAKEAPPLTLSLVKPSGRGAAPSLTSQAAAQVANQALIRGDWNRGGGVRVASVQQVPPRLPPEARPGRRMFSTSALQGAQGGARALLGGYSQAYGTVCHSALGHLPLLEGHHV

[10] = target: BDNF/NT-3 growth factors receptor (Homo sapiens) (UniProt Q16620); assay: Inhibition of TRKB (unknown origin) at 500 nM preincubated for 10 mins followed by substrate addition and measured after 60 mins in presence of ATP by ADP-Glo reagent based assay relative to control; conditions: time 70.0 min
Sequence of BDNF/NT-3 growth factors receptor (Homo sapiens) (Q16620 32-822 limits assumed): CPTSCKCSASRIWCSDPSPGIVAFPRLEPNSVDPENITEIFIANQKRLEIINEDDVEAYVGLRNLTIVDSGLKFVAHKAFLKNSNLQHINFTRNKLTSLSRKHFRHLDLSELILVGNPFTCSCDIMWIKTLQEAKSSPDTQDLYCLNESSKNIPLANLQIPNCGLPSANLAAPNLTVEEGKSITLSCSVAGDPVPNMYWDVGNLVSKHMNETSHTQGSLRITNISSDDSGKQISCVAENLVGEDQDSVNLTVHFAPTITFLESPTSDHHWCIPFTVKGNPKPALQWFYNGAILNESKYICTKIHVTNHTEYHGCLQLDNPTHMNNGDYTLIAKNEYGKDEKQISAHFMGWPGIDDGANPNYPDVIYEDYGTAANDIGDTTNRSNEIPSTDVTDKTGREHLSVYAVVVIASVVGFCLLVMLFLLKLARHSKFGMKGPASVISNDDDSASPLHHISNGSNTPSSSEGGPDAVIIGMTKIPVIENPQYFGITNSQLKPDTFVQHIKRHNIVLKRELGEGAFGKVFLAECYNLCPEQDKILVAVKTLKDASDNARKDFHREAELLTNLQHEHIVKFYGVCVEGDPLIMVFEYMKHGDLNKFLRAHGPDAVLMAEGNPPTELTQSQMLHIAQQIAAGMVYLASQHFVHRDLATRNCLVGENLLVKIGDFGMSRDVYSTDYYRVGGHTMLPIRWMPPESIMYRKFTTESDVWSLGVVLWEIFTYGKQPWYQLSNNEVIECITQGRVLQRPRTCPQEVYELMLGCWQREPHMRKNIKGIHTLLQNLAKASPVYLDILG

NCI-H1975 [11] = assay: Downregulation of Mcl-1 level in human Osimertinib-resistant NCI-H1975 cell at 500 nM measured after 8 hrs by Western blotting analysis; type: functional, cell-based
NCI-H1975 [12] = assay: Downregulation of Mcl-1 mRNA expression in human Osimertinib-resistant NCI-H1975 cell at 0.1 to 1.0 uM measured after 8 hrs by qPCR analysis; type: functional, cell-based; conditions: dose 0.1-1 µM
[13] = Antiproliferative activity against human Osimertinib-resistant NCI-H1975 cell assessed as cell growth inhibition incubated for 72 hrs in presence of osimertinib by MTT assay; type: functional, cell-based; conditions: NCI-H1975, 72 h
NCI-H1975 [14] = assay: Downregulation of cleaved PARP level in human Osimertinib-resistant NCI-H1975 cell measured after 16 hrs by Western blot analysis; type: functional, cell-based; conditions: dose 125-2000 nM
NCI-H1975 [15] = assay: Downregulation of cleaved caspase-3 level in human Osimertinib-resistant NCI-H1975 cell measured after 16 hrs by Western blot analysis; type: functional, cell-based; conditions: dose 125-2000 nM
NCI-H1975 [16] = assay: Downregulation of cleaved PARP level in human Osimertinib-resistant NCI-H1975 cell at 125 nM measured after 16 hrs in presence of osimertinib by Western blot analysis; type: functional, cell-based
[17] = Induction of apoptosis in human Osimertinib-resistant NCI-H1975 cell assessed as viable cells at 125 nM measured after 16 hrs by Annexin V-FITC and PI staining based analysis (reference value: 94.9%); type: functional; conditions: read-out: Activity
[18] = Induction of apoptosis in human Osimertinib-resistant NCI-H1975 cell assessed as viable cells at 500 nM measured after 16 hrs by Annexin V-FITC and PI staining based analysis (reference value: 94.9%); type: functional; conditions: read-out: Activity
[19] = Induction of apoptosis in human Osimertinib-resistant NCI-H1975 cell assessed as late apoptotic cells at 500 nM measured after 16 hrs by Annexin V-FITC and PI staining based analysis (reference value: 2.84%); type: functional
[20] = Induction of apoptosis in human Osimertinib-resistant NCI-H1975 cell assessed as necrotic cells at 2000 nM measured after 16 hrs by Annexin V-FITC and PI staining based analysis (reference value: 0.50%); type: functional
CYP3A4 = CYP3A4 (Homo sapiens, UniProt P08684); assay: Inhibition of CYP3A4 in human liver microsomes using midazolam as substrate at 10 uM incubated for 5 mins in presence of NADPH by LC-MS/MS analysis relative to control; type: ADME, Microsome; conditions: probe midazolam
Sequence of CYP3A4 (P08684 whole entry): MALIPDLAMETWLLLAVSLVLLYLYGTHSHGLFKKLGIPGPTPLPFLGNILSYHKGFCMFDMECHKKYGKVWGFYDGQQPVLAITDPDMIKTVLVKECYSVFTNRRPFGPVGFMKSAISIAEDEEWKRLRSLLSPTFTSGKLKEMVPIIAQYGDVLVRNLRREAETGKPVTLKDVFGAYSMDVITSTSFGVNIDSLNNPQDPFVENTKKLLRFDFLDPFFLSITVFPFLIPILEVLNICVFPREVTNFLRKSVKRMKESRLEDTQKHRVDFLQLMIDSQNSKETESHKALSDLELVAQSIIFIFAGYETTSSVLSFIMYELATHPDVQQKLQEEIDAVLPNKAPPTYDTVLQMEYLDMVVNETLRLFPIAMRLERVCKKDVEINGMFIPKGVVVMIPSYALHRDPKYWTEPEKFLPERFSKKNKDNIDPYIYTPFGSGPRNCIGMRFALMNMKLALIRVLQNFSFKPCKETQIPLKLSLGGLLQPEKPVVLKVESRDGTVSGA

[21] = Toxicity in ICR mouse assessed as morphological changes in heart at 1000 mg/kg, po measured after 9 days by H and E staining based analysis; type: organism-based; conditions: in vivo, 216 h, time 9 day
[22] = Toxicity in ICR mouse assessed as morphological changes in spleen at 1000 mg/kg, po measured after 9 days by H and E staining based analysis; type: organism-based; conditions: in vivo, 216 h, time 9 day
[23] = Toxicity in ICR mouse assessed as abnormalities in heart at 1000 mg/kg, po measured after 9 days by H and E staining based analysis; type: organism-based; conditions: in vivo, 216 h, time 9 day
[24] = Antiproliferative activity against 3D-cultured human Osimertinib-resistant NCI-H1975 cell incubated for 72 hrs by MTT assay; type: functional, cell-based; conditions: NCI-H1975, 72 h
NCI-H1975 [25] = assay: Inhibition of cell growth in 3D-cultured human Osimertinib-resistant NCI-H1975 cell by DAPI and PI staining based analysis; type: functional; conditions: dose 0.049-3.125 µM
[26] = Antitumor activity against patient derived #0085 lung cancer organoid assessed as inhibition of growth measured after 4 days; type: functional, tissue-based; conditions: Homo sapiens, 96 h
cells = conditions: Homo sapiens, Osimertinib-resistant HCC827AR cell, 72 h

Sequence of CDK9/cyclin T1 (O60563 whole entry): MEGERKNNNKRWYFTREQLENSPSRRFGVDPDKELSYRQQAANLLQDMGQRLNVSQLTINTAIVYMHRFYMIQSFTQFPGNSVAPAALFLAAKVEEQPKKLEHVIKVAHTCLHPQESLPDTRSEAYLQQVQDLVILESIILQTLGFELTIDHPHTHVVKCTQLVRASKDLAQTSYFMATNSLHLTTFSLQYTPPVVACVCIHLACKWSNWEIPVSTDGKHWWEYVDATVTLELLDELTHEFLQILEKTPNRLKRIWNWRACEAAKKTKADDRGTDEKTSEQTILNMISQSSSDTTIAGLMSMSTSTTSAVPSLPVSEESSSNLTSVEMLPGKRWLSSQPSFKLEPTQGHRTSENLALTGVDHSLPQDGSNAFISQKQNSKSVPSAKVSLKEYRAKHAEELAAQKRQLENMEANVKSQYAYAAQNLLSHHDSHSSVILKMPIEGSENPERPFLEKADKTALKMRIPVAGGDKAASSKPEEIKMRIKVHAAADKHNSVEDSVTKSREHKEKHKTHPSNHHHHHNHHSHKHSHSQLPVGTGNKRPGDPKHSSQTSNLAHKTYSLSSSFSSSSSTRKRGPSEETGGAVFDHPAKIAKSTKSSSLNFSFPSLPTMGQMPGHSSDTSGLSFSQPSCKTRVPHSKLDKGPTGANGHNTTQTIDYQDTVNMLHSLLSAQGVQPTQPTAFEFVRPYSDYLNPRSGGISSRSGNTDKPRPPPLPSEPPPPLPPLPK
Sequence of CDK9/cyclin T1 (P50750 whole entry): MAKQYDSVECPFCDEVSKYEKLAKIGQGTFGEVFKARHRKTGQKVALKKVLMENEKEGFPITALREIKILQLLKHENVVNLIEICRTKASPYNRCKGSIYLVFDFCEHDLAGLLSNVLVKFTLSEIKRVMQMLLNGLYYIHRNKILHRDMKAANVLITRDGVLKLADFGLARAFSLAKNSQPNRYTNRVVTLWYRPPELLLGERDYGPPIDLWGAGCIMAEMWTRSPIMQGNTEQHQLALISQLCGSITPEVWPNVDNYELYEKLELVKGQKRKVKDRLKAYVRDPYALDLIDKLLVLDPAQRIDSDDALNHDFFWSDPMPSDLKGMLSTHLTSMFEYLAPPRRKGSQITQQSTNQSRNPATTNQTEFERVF

SMILES: O=C(NCCN1CCOCC1)c1ccc2cc1OCCCCCCOc1cc(ccc1F)-c1nc(ncc1F)N2
- IC50 (CDK9/cyclin T1): 3.2 nM
- IC50 (HCC827): 315 nM
- inhibition [1]: 44.7%
- inhibition [2]: 12.8%
- inhibition [3]: 11.6%
- inhibition [4]: 56.4%
- inhibition [5]: 33.3%
- inhibition [6]: 46.7%
- inhibition [7]: 96.5%
- inhibition [8]: 96%
- inhibition [9]: 83.5%
- inhibition [10]: 80.7%
- Activity (NCI-H1975 [11]): Active
- Activity (NCI-H1975 [12]): Active
- IC50 [13]: 83 nM
- Activity (NCI-H1975 [14]): Dose-Dependent Effect
- Activity (NCI-H1975 [15]): Dose-Dependent Effect
- Activity (NCI-H1975 [16]): Active
- viability at 0.125 µM [17]: 88.9%
- viability at 0.5 µM [18]: 75.6%
- Activity [19]: 7.02%
- Activity [20]: 1.97%
- inhibition at 5 min, 10 µM (CYP3A4): 27.5%
- Activity [21]: Non-Toxic
- Activity [22]: Non-Toxic
- Activity [23]: Non-Toxic
- IC50 [24]: < 50 nM
- inhibition (NCI-H1975 [25]): Dose-Dependent Effect
- IC50 [26]: 130 nM
- IC50 (cells): 251 nM

Reference: ChEMBL document CHEMBL5390253, “Discovery of Selective and Potent Macrocyclic CDK9 Inhibitors for the Treatment of Osimertinib-Resistant Non-Small-Cell Lung Cancer” (J Med Chem, 2023)
